Source: article PMC6466617 (The AAPS journal, 2019)

Target: T1, monocarboxylate transporter 1 (MCT1) (Mus musculus, UniProt P53986)
T1 sequence (P53986 1-493): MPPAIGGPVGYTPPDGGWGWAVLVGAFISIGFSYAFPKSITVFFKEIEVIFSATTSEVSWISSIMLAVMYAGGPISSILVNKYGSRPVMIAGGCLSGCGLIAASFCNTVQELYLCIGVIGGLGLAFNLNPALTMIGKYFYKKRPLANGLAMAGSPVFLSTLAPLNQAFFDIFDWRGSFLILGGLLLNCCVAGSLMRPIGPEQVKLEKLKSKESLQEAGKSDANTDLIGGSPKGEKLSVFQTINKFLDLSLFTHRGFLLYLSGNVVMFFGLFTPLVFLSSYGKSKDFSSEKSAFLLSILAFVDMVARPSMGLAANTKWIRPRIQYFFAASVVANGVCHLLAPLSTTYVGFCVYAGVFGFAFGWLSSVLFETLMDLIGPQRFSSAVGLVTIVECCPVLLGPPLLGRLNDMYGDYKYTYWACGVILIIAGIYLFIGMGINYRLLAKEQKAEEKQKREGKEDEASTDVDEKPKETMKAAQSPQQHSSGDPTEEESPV
Assay: inhibition of [3H]-L-lactate uptake in 4T1 cells at […], pH […], with washout
Format: cell-based
Settings: 4T1, read-out: % inhibition at 200 nM

- inhibition at 0.2 µM: 83.5%
SMILES: Cc1[nH]nc(C(F)(F)F)c1Cc1sc2c(c1C(=O)N1C[C@](C)(O)CO1)c(=O)n(C)c(=O)n2C(C)C [AZD3965]
